Drawing on patent US20240158391A1, “DERIVATIVES OF 4-(IMIDAZO[1,2-A]PYRIDIN-3-YL)-N-(PYRIDIN-3-YL) PYRIMIDIN-2- AMINE FOR TREATING PROLIFERATIVE DISEASES AND CONDITIONS” (AUCENTRA THERAPEUTICS PTY LTD, priority 2019, published 2024), this text covers remaining activity, Ki and GI50 for nine compounds.

Structures are written as SMILES. A value given as a limit tells only on which side of the number the result lay.

Experiment [1] has as its target CDK1/CyclinB (Homo sapiens, UniProt P06493). The experiment is described as follows: ADP Glo kinase assay, CDK1/CyclinB. It is filed as biochemical. Conditions: for remaining activity at 1 µM: compound at 1 μM, read-out: Residual enzymatic activity (%) at 1 μM, CDK1 B; for Ki: Km ATP, read-out: Enzymatic inhibition, Ki, CDK1 B. In a few lines: (§1)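 ADP Glo reagent terminates each kinase reaction after an optimised incubation at room temperature. Compounds are tested at ten concentrations spanning 10 to 0.0005 μM, diluted 1:3, with 0.5% DMSO.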

In experiment [2] the target is CDK2/CyclinA2 (Homo sapiens, UniProt P24941). The experiment in a line: ADP Glo kinase assay, CDK2/CyclinA2. The settings on record: for remaining activity at 1 µM: compound at 1 μM, read-out: Residual enzymatic activity (%) at 1 μM, CDK2 A; for Ki: Km ATP, read-out: Enzymatic inhibition, Ki, CDK2 A. It is filed as biochemical. The essentials:
as §1

Experiment [3] addresses CDK4/CyclinD1 (Homo sapiens, UniProt P11802). The experiment is described as follows: ADP Glo kinase assay, CDK4/CyclinD1. Format: biochemical. Conditions: for remaining activity at 1 µM: compound at 1 μM, read-out: Residual enzymatic activity (%) at 1 μM, CDK4 D1; for Ki: Km ATP, read-out: Enzymatic inhibition, Ki, CDK4 D1. The essentials:
as §1

For experiment [4], the target named is CDK6/CyclinD3 (Homo sapiens, UniProt Q00534). The experiment is described as follows: ADP Glo kinase assay, CDK6/CyclinD3. Format: biochemical. Conditions: for remaining activity at 1 µM: compound at 1 μM, read-out: Residual enzymatic activity (%) at 1 μM, CDK6 D3; for Ki: Km ATP, read-out: Enzymatic inhibition, Ki, CDK6 D3. In a few lines:
as §1

Experiment [5] has as its target CDK7/CyclinH/Mat1 (Homo sapiens, UniProt P50613). The experiment in a line: ADP Glo kinase assay, CDK7/CyclinH/Mat1. Format: biochemical. The settings on record: for remaining activity at 1 µM: compound at 1 μM, read-out: Residual enzymatic activity (%) at 1 μM, CDK7 H; for Ki: Km ATP, read-out: Enzymatic inhibition, Ki, CDK7 H. The essentials:
as §1

Experiment [6] addresses CDK9/CyclinT1 (Homo sapiens, UniProt P50750). The experiment in a line: ADP Glo kinase assay, CDK9/CyclinT1. It is filed as biochemical. The settings on record: CDK9/CyclinT1; Km ATP; read-out: Enzymatic inhibition, Ki, CDK9 T1. In a few lines:
as §1

Experiment [7] addresses T1, FLT3-ITD (Homo sapiens, UniProt P36888).
T1 sequence (P36888 1-993): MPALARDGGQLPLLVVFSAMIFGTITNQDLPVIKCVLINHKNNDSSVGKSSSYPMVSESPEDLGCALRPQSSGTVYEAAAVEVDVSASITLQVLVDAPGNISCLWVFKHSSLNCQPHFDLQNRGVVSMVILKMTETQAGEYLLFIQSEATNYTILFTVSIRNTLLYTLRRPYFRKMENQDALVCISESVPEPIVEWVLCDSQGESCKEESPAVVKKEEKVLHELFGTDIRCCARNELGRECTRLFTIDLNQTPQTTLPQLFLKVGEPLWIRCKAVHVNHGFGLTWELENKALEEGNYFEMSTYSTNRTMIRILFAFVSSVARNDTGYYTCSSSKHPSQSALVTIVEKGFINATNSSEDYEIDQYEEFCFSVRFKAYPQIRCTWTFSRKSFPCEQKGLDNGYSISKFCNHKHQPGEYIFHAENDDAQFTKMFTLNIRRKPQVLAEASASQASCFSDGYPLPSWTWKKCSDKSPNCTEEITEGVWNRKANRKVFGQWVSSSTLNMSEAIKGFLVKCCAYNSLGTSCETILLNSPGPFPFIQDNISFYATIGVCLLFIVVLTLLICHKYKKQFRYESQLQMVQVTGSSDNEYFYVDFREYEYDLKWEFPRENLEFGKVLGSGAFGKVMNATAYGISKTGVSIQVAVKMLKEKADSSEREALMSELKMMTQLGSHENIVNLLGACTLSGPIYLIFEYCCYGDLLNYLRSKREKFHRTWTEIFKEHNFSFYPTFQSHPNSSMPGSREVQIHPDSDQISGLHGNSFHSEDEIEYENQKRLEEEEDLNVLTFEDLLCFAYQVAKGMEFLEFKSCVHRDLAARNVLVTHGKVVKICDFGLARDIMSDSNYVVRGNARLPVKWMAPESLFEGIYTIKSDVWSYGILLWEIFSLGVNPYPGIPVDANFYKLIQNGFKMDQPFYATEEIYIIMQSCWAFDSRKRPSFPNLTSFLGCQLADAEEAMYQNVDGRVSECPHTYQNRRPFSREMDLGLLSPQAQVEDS
The experiment is described as follows: ADP Glo kinase assay, FLT3-ITD. Format: biochemical. Conditions: Km ATP 100 μM, read-out: Enzymatic inhibition, Ki, FLT3-ITD. In a few lines:
as §1

In experiment [8] the test system is MV-4-11. The experiment in a line: Proliferation assay (resazurin, leukemia cell lines), MV-4-11. Format: cell-based. The settings on record: Homo sapiens, MV4-11, read-out: 72 h Growth inhibition GI50, MV-4-11 cells. The source says:
The following compounds were used as comparators.

CDK6/CyclinD3, sequence (Q00534 whole entry, species assumed): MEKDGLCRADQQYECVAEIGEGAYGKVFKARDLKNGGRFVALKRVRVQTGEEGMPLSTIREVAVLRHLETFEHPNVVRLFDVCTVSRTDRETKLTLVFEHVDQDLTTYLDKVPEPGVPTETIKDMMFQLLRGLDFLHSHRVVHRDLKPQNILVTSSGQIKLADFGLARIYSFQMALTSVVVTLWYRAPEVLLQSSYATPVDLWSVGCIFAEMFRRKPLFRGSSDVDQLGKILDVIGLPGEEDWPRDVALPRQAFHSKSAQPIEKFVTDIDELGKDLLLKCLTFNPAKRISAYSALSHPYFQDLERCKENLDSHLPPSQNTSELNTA
CDK6/CyclinD3, sequence (P30281 whole entry partner, species assumed): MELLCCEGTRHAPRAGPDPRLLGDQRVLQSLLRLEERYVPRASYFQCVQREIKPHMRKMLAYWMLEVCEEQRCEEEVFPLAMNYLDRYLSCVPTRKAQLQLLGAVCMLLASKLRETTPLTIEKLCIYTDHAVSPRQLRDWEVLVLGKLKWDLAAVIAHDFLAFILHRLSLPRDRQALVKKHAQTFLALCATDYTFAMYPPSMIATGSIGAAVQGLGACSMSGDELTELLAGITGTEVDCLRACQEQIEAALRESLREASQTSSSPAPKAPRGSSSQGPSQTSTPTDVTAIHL
CDK9/CyclinT1, sequence (P50750 whole entry, species assumed): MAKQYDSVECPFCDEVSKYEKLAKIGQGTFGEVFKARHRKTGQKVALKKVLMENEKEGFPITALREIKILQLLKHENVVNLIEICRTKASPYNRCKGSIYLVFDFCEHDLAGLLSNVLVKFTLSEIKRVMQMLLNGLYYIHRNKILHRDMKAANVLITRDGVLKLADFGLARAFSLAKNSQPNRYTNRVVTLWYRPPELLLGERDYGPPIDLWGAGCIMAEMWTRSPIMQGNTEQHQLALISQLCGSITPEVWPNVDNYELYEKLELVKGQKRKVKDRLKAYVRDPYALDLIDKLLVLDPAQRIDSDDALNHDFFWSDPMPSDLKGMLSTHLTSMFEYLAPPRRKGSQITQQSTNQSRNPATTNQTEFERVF
CDK9/CyclinT1, sequence (O60563 whole entry partner, species assumed): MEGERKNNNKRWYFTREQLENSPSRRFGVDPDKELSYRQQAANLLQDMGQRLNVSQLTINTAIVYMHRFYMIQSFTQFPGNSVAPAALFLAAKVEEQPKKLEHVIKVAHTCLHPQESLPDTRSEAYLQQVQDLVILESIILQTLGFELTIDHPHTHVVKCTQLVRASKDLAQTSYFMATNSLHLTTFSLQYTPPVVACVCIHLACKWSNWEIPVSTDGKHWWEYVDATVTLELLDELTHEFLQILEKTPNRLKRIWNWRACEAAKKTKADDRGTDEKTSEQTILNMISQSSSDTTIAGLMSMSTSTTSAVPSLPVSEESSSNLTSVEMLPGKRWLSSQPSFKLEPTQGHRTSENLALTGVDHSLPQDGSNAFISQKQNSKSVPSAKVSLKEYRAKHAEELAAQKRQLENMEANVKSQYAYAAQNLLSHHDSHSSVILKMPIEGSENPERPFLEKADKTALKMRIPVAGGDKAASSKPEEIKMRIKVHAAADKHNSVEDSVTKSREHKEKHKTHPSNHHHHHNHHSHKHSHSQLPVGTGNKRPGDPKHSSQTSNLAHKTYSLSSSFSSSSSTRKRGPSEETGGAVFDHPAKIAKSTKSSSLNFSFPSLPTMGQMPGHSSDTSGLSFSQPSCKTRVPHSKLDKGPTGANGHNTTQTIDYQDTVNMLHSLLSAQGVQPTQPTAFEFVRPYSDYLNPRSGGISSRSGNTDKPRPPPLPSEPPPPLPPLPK
CDK4/CyclinD1, sequence (P11802 whole entry, species assumed): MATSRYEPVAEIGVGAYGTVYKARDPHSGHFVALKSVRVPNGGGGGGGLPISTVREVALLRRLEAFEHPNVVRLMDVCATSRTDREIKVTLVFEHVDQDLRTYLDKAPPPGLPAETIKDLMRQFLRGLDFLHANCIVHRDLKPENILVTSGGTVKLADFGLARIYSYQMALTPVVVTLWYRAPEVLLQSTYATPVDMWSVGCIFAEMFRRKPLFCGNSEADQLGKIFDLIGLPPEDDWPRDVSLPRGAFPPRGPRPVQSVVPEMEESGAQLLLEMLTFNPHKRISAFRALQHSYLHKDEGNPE
CDK4/CyclinD1, sequence (P24385 whole entry partner, species assumed): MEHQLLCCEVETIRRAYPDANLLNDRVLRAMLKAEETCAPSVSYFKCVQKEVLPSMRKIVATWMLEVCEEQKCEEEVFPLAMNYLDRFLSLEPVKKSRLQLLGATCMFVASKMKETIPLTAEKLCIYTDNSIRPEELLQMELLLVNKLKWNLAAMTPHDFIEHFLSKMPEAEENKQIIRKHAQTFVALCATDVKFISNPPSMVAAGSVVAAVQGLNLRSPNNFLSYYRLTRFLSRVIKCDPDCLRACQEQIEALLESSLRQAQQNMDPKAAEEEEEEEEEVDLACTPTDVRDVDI
CDK1/CyclinB, sequence (P06493 whole entry, species assumed): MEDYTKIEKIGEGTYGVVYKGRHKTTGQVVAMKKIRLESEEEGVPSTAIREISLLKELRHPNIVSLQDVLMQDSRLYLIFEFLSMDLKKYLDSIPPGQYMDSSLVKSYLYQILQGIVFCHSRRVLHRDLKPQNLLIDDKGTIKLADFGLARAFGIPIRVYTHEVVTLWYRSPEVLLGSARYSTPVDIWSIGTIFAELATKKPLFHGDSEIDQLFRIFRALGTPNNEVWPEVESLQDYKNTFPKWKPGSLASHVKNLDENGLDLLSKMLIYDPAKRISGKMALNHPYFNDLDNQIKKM
CDK1/CyclinB, sequence (P14635 whole entry partner, species assumed): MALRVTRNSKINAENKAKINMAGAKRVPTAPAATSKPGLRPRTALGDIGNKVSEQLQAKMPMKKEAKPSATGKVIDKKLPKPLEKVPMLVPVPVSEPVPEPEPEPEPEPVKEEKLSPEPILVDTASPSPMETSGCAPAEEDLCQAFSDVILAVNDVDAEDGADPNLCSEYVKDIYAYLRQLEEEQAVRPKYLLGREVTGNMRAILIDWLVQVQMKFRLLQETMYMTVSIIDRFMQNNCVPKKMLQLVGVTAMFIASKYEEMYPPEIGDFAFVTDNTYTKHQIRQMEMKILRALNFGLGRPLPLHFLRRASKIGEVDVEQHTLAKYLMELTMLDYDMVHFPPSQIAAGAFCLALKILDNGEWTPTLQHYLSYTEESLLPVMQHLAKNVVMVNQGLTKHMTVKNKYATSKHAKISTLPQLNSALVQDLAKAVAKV
CDK7/CyclinH/Mat1, sequence (P50613 whole entry, species assumed): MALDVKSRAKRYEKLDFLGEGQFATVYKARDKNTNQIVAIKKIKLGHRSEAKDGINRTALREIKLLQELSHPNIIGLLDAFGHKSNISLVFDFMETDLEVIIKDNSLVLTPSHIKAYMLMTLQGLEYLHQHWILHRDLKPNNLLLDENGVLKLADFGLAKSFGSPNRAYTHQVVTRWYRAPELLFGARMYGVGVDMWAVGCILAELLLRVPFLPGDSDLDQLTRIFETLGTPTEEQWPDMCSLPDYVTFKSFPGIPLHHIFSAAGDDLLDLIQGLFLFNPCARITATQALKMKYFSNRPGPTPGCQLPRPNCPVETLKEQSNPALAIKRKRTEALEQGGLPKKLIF
CDK7/CyclinH/Mat1, sequence (P51946 whole entry partner, species assumed): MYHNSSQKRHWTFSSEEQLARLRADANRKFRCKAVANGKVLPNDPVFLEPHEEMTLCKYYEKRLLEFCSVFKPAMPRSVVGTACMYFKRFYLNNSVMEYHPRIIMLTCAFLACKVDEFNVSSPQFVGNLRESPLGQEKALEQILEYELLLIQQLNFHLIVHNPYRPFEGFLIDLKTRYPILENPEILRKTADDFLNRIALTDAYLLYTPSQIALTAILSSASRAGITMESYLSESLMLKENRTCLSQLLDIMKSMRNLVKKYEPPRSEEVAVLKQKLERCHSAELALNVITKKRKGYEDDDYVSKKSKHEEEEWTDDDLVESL
CDK7/CyclinH/Mat1, sequence (P51948 whole entry partner, species assumed): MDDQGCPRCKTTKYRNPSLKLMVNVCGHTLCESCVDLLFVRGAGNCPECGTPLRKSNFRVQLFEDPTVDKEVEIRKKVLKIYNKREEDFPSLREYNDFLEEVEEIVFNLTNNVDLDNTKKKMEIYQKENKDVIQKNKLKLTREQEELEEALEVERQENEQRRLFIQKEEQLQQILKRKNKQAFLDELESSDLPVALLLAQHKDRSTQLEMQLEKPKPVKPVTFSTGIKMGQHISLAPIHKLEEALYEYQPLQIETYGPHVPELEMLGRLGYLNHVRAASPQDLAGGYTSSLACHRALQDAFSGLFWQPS

Turning to `CC(=O)N1CCN(c2ccc(Nc3nccc(-c4cnc5ccc(-c6ccncc6)cn45)n3)cn2)CC1` [Compound 46, 1-(4-(5-((4-(6-(Pyridin-4-yl)imidazo[1,2-a]pyridin-3-yl)pyrimidin-2-yl)amino)pyridin-2-yl)piperazin-1-yl)ethan-1-one], the remaining activity at 1 µM in experiment [1] was 21%; in experiment [2], 62%; in experiment [3] it was 92%; in experiment [4], 31%; in experiment [5], 71%. Besides, the values for the inhibitory constant (Ki) in experiment [6] and in experiment [7] were 310 nM and 80 nM, respectively. Further, the GI50 in experiment [8] was found to be 25 nM.

For the compound `COC(=O)N1CCC(c2ccc(Nc3ncc(F)c(-c4cnc5ccc(-c6ccccc6)cn45)n3)cn2)CC1` [Compound 29, Methyl 4-(5-((5-fluoro-4-(6-phenylimidazo[1,2-a]pyridin-3-yl)pyrimidin-2-yl)amino)pyridin-2-yl)piperidine-1-carboxylate], the remaining activity at 1 µM in experiment [1] came out at 69%; in experiment [2], 25%; in experiment [3], 98%; in experiment [4], 61%. Further, the Ki in experiment [5] is more than 5000 nM; in experiment [6] it was more than 5000 nM; in experiment [7], 257 nM. Further, the GI50 in experiment [8] was 337 nM.

For `CC(=O)N1CCN(c2ccc(Nc3ncc(C)c(-c4cnc5ccccn45)n3)cn2)CC1` [Compound 11, 1-(4-(5-((4-(Imidazo[1,2-a]pyridin-3-yl)-5-methylpyrimidin-2-yl)amino)pyridin-2-yl)piperazin-1-yl)ethan-1-one], the remaining activity at 1 µM in experiment [1] was 54%; in experiment [3] it was 21%; in experiment [5], 20%. The inhibitory constant (Ki) in experiment [2] was 101 nM; in experiment [4], 1010 nM; in experiment [6] it was 1340 nM; in experiment [7], 20 nM. In experiment [8], the GI50 amounted to 88 nM.

`CC(=O)N1CCN(c2ccc(Nc3nccc(-c4cnc5ccc(-c6cn[nH]c6)cn45)n3)cn2)CC1` [Compound 47, 1-(4-(5-((4-(6-(1H-Pyrazol-4-yl)imidazo[1,2-a]pyridin-3-yl)pyrimidin-2-yl)amino)pyridin-2-yl)piperazin-1-yl)ethan-1-one]: the Ki was 116 nM in experiment [1]; 39 nM in experiment [2]; 444 nM in experiment [4]; 262 nM in experiment [5]; 45 nM in experiment [6]; 25 nM in experiment [7]. Further, the remaining activity at 1 µM in experiment [3] turned out to be 51%. In addition, the concentration for 50% growth inhibition (GI50) in experiment [8] stood at 29 nM.

Consider `Cc1cnc(Nc2ccc(N3CCNCC3)nc2)nc1-c1cnc2ccccn12` [Compound 13, 4-(Imidazo[1,2-a]pyridin-3-yl)-5-methyl-N-(6-(piperazin-1-yl)pyridin-3-yl)pyrimidin-2-amine], for which the Ki in experiment [1] came out at 500 nM; in experiment [2] it was 170 nM; in experiment [3], 408 nM; in experiment [4] it was 299 nM; in experiment [5], 410 nM; in experiment [6], 494 nM. For the same compound, the inhibition constant (Ki) in experiment [7] was 6 nM. In experiment [8], the GI50 came to 7 nM.

For `Cc1cnc(Nc2ccc(N3CCOCC3)nc2)nc1-c1cnc2ccccn12` [Compound 14, 4-(Imidazo[1,2-a]pyridin-3-yl)-5-methyl-N-(6-morpholinopyridin-3-yl)pyrimidin-2-amine], the Ki in experiment [1] is 150 nM; in experiment [2], 64 nM; in experiment [4] it was 1600 nM; in experiment [5], 1730 nM; in experiment [6], more than 5000 nM; in experiment [7], 9 nM. In experiment [3], the remaining activity at 1 µM is 50%. Moreover, the GI50 in experiment [8] is 49 nM.

As for `CS(=O)(=O)N1CCN(c2ccc(Nc3nccc(-c4cnc5ccc(-c6ccco6)cn45)n3)cn2)CC1` [Compound 51, 4-(6-(Furan-2-yl)imidazo[1,2-a]pyridin-3-yl)-N-(6-(4-(methylsulfonyl)piperazin-1-yl)pyridin-3-yl)pyrimidin-2-amine], the remaining activity at 1 µM was determined as 77% in experiment [1]; 85% in experiment [2]; 96% in experiment [3]; 43% in experiment [4]; 80% in experiment [5]. Also, the Ki in experiment [6] was 286 nM; in experiment [7], more than 500 nM. Further, the 50% growth inhibitory concentration (GI50) in experiment [8] was 17 nM.

`CN1CCN(c2ccc(Nc3nccc(-c4cnc5ccc(C(F)(F)F)cn45)n3)cn2)CC1` [Compound 36, N-(6-(4-Methylpiperazin-1-yl)pyridin-3-yl)-4-(6-(trifluoromethyl)imidazo[1,2-a]pyridin-3-yl)pyrimidin-2-amine]: the inhibitory constant (Ki) in experiment [1] is 198 nM; in experiment [2], 131 nM; in experiment [3] it was 530 nM; in experiment [6] it was 34 nM; in experiment [7] it was 10 nM. In addition, the remaining activity at 1 µM came out at 34% in experiment [4] and 31% in experiment [5]. The GI50 in experiment [8] amounted to 18 nM.

On to `CN1CCN(c2ccc(Nc3nccc(-c4cnc5ccc(F)cn45)n3)cn2)CC1` [Compound 12, 4-(6-Fluoroimidazo[1,2-a]pyridin-3-yl)-N-(6-(4-methylpiperazin-1-yl)pyridin-3-yl) pyrimidin-2-amine], for which the Ki in experiment [1] worked out at 865 nM; in experiment [2], 156 nM; in experiment [3], 380 nM; in experiment [4], 779 nM; in experiment [5], 1720 nM; in experiment [6], 29 nM. Further, the Ki in experiment [7] turned out to be 7 nM. Besides, in experiment [8], the GI50 is 13 nM.
